In the supplement of paper PMC10307832:

Legend:
Test in all cases: relative viability (nuclei count vs DMSO), 5 days (fraction); higher = more cells survive
[1] = tested on: NCI-H322M
How it was run: (§1)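 Lung cancer cell lines in 1536-well plates were dosed by pin tool the day after seeding, either with one drug alone or with a fixed anchor-drug dose plus five library-drug doses (not always all listed) in √10 steps. After 5 days, cells were fixed and their nuclei stained in one step (final 0.05% Triton X-100, 1% formaldehyde, 1 ug/ml Hoechst), then counted on 4× images. Relative viability is the nuclei count in treated wells divided by that in vehicle wells. Values are medians of duplicate plates.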

[2] = tested on: EKVX
How it was run: as §1

[3] = tested on: NCI-H2405
How it was run: as §1

[4] = tested on: NCI-H661
How it was run: as §1

[5] = tested on: ABC-1
How it was run: as §1

[6] = tested on: LK-2
How it was run: as §1

[7] = tested on: NCI-H2228
How it was run: as §1

[8] = tested on: NCI-H1734
How it was run: as §1

[9] = tested on: CAL-12T
How it was run: as §1

[10] = tested on: SW 1573
How it was run: as §1

[11] = tested on: NCI-H2342
How it was run: as §1

[12] = tested on: NCI-H520
How it was run: as §1

[13] = tested on: COR-L23
How it was run: as §1

[14] = tested on: NCI-H1355
How it was run: as §1

[15] = tested on: PC-14
How it was run: as §1

[16] = tested on: HCC-827
How it was run: as §1

[17] = tested on: RERF-LC-KJ
How it was run: as §1

[18] = tested on: NCI-H1437
How it was run: as §1

[19] = tested on: NCI-H1650
How it was run: as §1

[20] = tested on: H3255
How it was run: as §1

[21] = tested on: HCC-15
How it was run: as §1

[22] = tested on: PC-3 [JPC-3]
How it was run: as §1

Which relative viability ([1]; first compound 0.04 µM) does the source give for `O=C(O)c1ccc(-c2c[nH]c3ncc(-c4ccccc4)cc23)cc1C1CCCC1` + Cc1cc(Nc2cc(N3CCN(C)CC3)nc(Sc3ccc(NC(=O)C4CC4)cc3)n2)n[nH]1 [Tozasertib] (partner 0.1 µM) here?
The relative viability was 0.472.

What about the relative viability ([1]; first compound 0.1265 µM) of the same molecule?
Its relative viability is 0.521.

What about the relative viability ([1]; first compound 0.4 µM) of the same molecule?
The relative viability was 0.452.

And the relative viability ([1]; first compound 1.265 µM)?
Its relative viability is 0.437.

What about the relative viability ([2]; first compound 0.04 µM) of the same molecule?
Its relative viability is 0.404.

And the relative viability ([2]; first compound 0.1265 µM)?
The relative viability was 0.443.

And the relative viability ([2]; first compound 0.4 µM)?
The relative viability was 0.416.

And the relative viability ([2]; first compound 1.265 µM)?
The relative viability was 0.364.

What about the relative viability ([3]; first compound 0.04 µM) of the same molecule?
Its relative viability is 0.725.

And the relative viability ([3]; first compound 0.1265 µM)?
The relative viability was 0.806.

What about the relative viability ([3]; first compound 0.4 µM) of the same molecule?
The relative viability was 0.648.

What about the relative viability ([3]; first compound 1.265 µM) of the same molecule?
The relative viability was 0.583.

And the relative viability ([4]; first compound 0.04 µM)?
The relative viability was 0.367.

And the relative viability ([4]; first compound 0.1265 µM)?
Its relative viability is 0.36.

And the relative viability ([4]; first compound 0.4 µM)?
Its relative viability is 0.353.

What about the relative viability ([4]; first compound 1.265 µM) of the same molecule?
The relative viability was 0.34.

What about the relative viability ([5]; first compound 0.04 µM) of the same molecule?
The relative viability was 0.2.

What about the relative viability ([5]; first compound 0.1265 µM) of the same molecule?
The relative viability was 0.192.

What about the relative viability ([5]; first compound 0.4 µM) of the same molecule?
Its relative viability is 0.147.

And the relative viability ([5]; first compound 1.265 µM)?
The relative viability was 0.18.

What about the relative viability ([6]; first compound 0.04 µM) of the same molecule?
Its relative viability is 0.186.

And the relative viability ([6]; first compound 0.1265 µM)?
The relative viability was 0.161.

And the relative viability ([6]; first compound 0.4 µM)?
Its relative viability is 0.181.

And the relative viability ([6]; first compound 1.265 µM)?
The relative viability was 0.184.

What about the relative viability ([7]; first compound 0.04 µM) of the same molecule?
Its relative viability is 0.244.

What about the relative viability ([7]; first compound 0.1265 µM) of the same molecule?
Its relative viability is 0.272.

What about the relative viability ([7]; first compound 0.4 µM) of the same molecule?
Its relative viability is 0.218.

And the relative viability ([7]; first compound 1.265 µM)?
The relative viability was 0.186.

What about the relative viability ([8]; first compound 0.04 µM) of the same molecule?
The relative viability was 0.284.

What about the relative viability ([8]; first compound 0.1265 µM) of the same molecule?
The relative viability was 0.236.

And the relative viability ([8]; first compound 0.4 µM)?
Its relative viability is 0.247.

What about the relative viability ([8]; first compound 1.265 µM) of the same molecule?
The relative viability was 0.258.

And the relative viability ([9]; first compound 0.04 µM)?
The relative viability was 0.314.

What about the relative viability ([9]; first compound 0.1265 µM) of the same molecule?
Its relative viability is 0.374.

And the relative viability ([9]; first compound 0.4 µM)?
The relative viability was 0.315.

What about the relative viability ([9]; first compound 1.265 µM) of the same molecule?
Its relative viability is 0.337.

And the relative viability ([10]; first compound 0.04 µM)?
The relative viability was 0.183.

And the relative viability ([10]; first compound 0.1265 µM)?
The relative viability was 0.194.

And the relative viability ([10]; first compound 0.4 µM)?
The relative viability was 0.211.

What about the relative viability ([10]; first compound 1.265 µM) of the same molecule?
Its relative viability is 0.148.

And the relative viability ([11]; first compound 0.04 µM)?
Its relative viability is 0.588.

And the relative viability ([11]; first compound 0.1265 µM)?
Its relative viability is 0.422.

And the relative viability ([11]; first compound 0.4 µM)?
The relative viability was 0.445.

What about the relative viability ([11]; first compound 1.265 µM) of the same molecule?
Its relative viability is 0.521.

What about the relative viability ([12]; first compound 0.04 µM) of the same molecule?
The relative viability was 0.504.

And the relative viability ([12]; first compound 0.1265 µM)?
The relative viability was 0.408.

And the relative viability ([12]; first compound 0.4 µM)?
The relative viability was 0.384.

What about the relative viability ([12]; first compound 1.265 µM) of the same molecule?
The relative viability was 0.483.

And the relative viability ([13]; first compound 0.04 µM)?
The relative viability was 0.208.

What about the relative viability ([13]; first compound 0.1265 µM) of the same molecule?
The relative viability was 0.177.

And the relative viability ([13]; first compound 0.4 µM)?
Its relative viability is 0.166.

And the relative viability ([13]; first compound 1.265 µM)?
Its relative viability is 0.119.

What about the relative viability ([14]; first compound 0.04 µM) of the same molecule?
Its relative viability is 0.56.

What about the relative viability ([14]; first compound 0.1265 µM) of the same molecule?
The relative viability was 0.632.

What about the relative viability ([14]; first compound 0.4 µM) of the same molecule?
The relative viability was 0.522.

What about the relative viability ([14]; first compound 1.265 µM) of the same molecule?
The relative viability was 0.281.

And the relative viability ([15]; first compound 0.04 µM)?
The relative viability was 0.599.

What about the relative viability ([15]; first compound 0.1265 µM) of the same molecule?
The relative viability was 0.638.

And the relative viability ([15]; first compound 0.4 µM)?
The relative viability was 0.484.

What about the relative viability ([15]; first compound 1.265 µM) of the same molecule?
Its relative viability is 0.508.

What about the relative viability ([16]; first compound 0.04 µM) of the same molecule?
The relative viability was 0.459.

And the relative viability ([16]; first compound 0.1265 µM)?
The relative viability was 0.475.

And the relative viability ([16]; first compound 0.4 µM)?
The relative viability was 0.404.

What about the relative viability ([16]; first compound 1.265 µM) of the same molecule?
The relative viability was 0.328.

And the relative viability ([17]; first compound 0.04 µM)?
The relative viability was 0.531.

What about the relative viability ([17]; first compound 0.1265 µM) of the same molecule?
The relative viability was 0.422.

And the relative viability ([17]; first compound 0.4 µM)?
Its relative viability is 0.407.

And the relative viability ([17]; first compound 1.265 µM)?
The relative viability was 0.275.

And the relative viability ([18]; first compound 0.04 µM)?
Its relative viability is 0.402.

What about the relative viability ([18]; first compound 0.1265 µM) of the same molecule?
Its relative viability is 0.466.

And the relative viability ([18]; first compound 0.4 µM)?
Its relative viability is 0.398.

What about the relative viability ([18]; first compound 1.265 µM) of the same molecule?
The relative viability was 0.405.

What about the relative viability ([19]; first compound 0.04 µM) of the same molecule?
Its relative viability is 0.458.

And the relative viability ([19]; first compound 0.1265 µM)?
Its relative viability is 0.388.

What about the relative viability ([19]; first compound 0.4 µM) of the same molecule?
The relative viability was 0.372.

What about the relative viability ([19]; first compound 1.265 µM) of the same molecule?
Its relative viability is 0.295.

And the relative viability ([20]; first compound 0.04 µM)?
Its relative viability is 0.524.

What about the relative viability ([20]; first compound 0.1265 µM) of the same molecule?
The relative viability was 0.693.

What about the relative viability ([20]; first compound 0.4 µM) of the same molecule?
The relative viability was 0.618.

And the relative viability ([20]; first compound 1.265 µM)?
Its relative viability is 0.604.

What about the relative viability ([21]; first compound 0.04 µM) of the same molecule?
Its relative viability is 0.403.

What about the relative viability ([21]; first compound 0.1265 µM) of the same molecule?
Its relative viability is 0.502.

What about the relative viability ([21]; first compound 0.4 µM) of the same molecule?
The relative viability was 0.307.

And the relative viability ([21]; first compound 1.265 µM)?
The relative viability was 0.151.

And the relative viability ([22]; first compound 0.04 µM)?
The relative viability was 0.926.

What about the relative viability ([22]; first compound 0.1265 µM) of the same molecule?
Its relative viability is 0.881.

And the relative viability ([22]; first compound 0.4 µM)?
Its relative viability is 0.766.

And the relative viability ([22]; first compound 1.265 µM)?
The relative viability was 0.65.
